From patent publication US20250059074A1, “ANTIMICROBIAL SYSTEM AND METHOD” (KEMIRA OYJ, priority 2021, published 2025)

Test system: Pseudoxanthomonas taiwanensis biofilm
Experiment: Biofilm test in 96-microwell plates with peg lids, Crystal Violet quantification
Format: cell-based
Conditions: for Impact (biofilm reduction percentage vs no added chemicals): 45° C., 150 rpm
Description: Authentic cooling water was obtained from a cooling water system in Germany. Proteobacteria are commonly found from cooling waters (Water Research 159 (2019): 464-479). In the biofilm-experiments the test water was spiked with Pseudoxanthomonas taiwanensis, a biofilm-forming species belonging to the phylum Proteobacter. Biofilm tests were done in simulated cooling water, SCW (prepared according to Marziya Rizvi et al., Nature Scientific Reports | (2021) 11:8353) using 96-microwell plate wells with peg lids (Thermo Fischer Scientific Inc., USA). Plates were incubated at 45° C. with a rotary shaking (150 rpm) providing high flow in each well. Wells of 96-microwell plates with peg-lids were filled with 10% authentic cooling water, 89% SCW and 1% of pure culture of Pseudoxanthomonas taiwanensis. Biofilm was grown at 45° C. with a rotary shaking (150 rpm) for 24 hours without addition of any chemical compound to be tested. After 24 hours from starting the test, the wells were emptied and a fresh solution comprising 10% authentic cooling water, 89% SCW and 1% of pure culture of Pseudoxanthomonas taiwanensis with different amounts of chemical compounds to be tested were added and the original peg-lid was placed back in place. After an additional 24 hours the wells were emptied and the biofilm amount on the pegs was quantified. The amount of biofilm formed on the peg surfaces was quantified with a staining solution by adding 200 μl of 1% Crystal Violet (Merck Millipore KGaA, Germany) in methanol to each well in a clean 96-well plate and placing the biofilm-containing peg-lid on it. After 3 minutes the wells were emptied and the wells and pegs were rinsed 3 times with tap water. Finally the peg-lid was placed in a clean 96-well plate, the attached Crystal Violet was dissolved into ethanol and the absorbance at 595 nm was measured. All parts per million (ppm) amounts given in Example 1 are as active ingredients. The Impact values are calculated as biofilm reduction percentages based on a comparison with no added chemicals. A positive value indicates a reduction in amount of biofilm whereas a negative value indicates an increase in the amount of biofilm. […] Biofilm was stained and quantified by absorbance measurement. Dosages are given as active ingredients.

SMILES | Impact (biofilm reduction percentage vs no added chemicals) (Compound A 0.15 ppm alone, 24 h, negative = increase) | Impact (biofilm reduction percentage vs no added chemicals) (Compound A 0.30 ppm alone, 24 h) | Impact (biofilm reduction percentage vs no added chemicals) (Compound A 0.45 ppm alone, 24 h) | Impact (biofilm reduction percentage vs no added chemicals) (Sodium hypochlorite 2 ppm alone, authentic cooling water+SCW+P. taiwanensis, 24 h on pre-grown biofilm, negative = increase) | Impact (biofilm reduction percentage vs no added chemicals) (Sodium hypochlorite 4 ppm alone, 24 h, negative = increase) | Impact (biofilm reduction percentage vs no added chemicals) (Sodium hypochlorite 8 ppm alone, 24 h, negative = increase) | Impact (biofilm reduction percentage vs no added chemicals) (Sodium hypochlorite 12 ppm alone, 24 h, negative = increase) | Impact (biofilm reduction percentage vs no added chemicals) (Sodium hypochlorite 16 ppm alone, 24 h) | Dosage required to reach noticeable biofilm reduction efficacy (Sodium hypochlorite on its own, as active compound)
Cc1ccc(S(=O)(=O)C=CC#N)cc1 [Compound A, 3-[(4-methylphenyl)sulphonyl]-2-propenenitrile] | −19% | 2% | 8% | – | – | – | – | – | –
OCl [Sodium hypochlorite] | – | – | – | −30% | −27% | −25% | −10% | 6% | 16 ppm
